Tests used:
DGKζ = DGKζ (Homo sapiens, UniProt Q13574); assay: In vitro DGKζ inhibition assay (ADP-Glo); format: biochemical; conditions: His-tagged human recombinant enzyme; 0.4 nM DGKζ, 30 μM ATP, 20 μM DLG; 90 minute incubation; ADP-Glo luminescence
Description: (§1) The DGKα and DGKζ biochemical reactions were performed using His-tagged human recombinant enzymes (Signal Chem, DGKα, #D21-10BH; DGKζ, #D30-10H)) and DLG (Dilauroyl-sn-glycerol) lipid substrate (Signal Chem, #D430-59). ADP-Glo assay was performed using ADP-Glo™ kinase Assay kit (Promega, #V9104). The reactions were carried out in assay buffer containing 40 mM Tris, pH 7.5, 0.1% CHAPS, 0.1% Prionex, 40 mM NaCl, 5 mM MgCl2, 1 mM CaCl2, and 1 mM DTT. DGKα reactions contained 0.1 nM DGKα, 50 μM ATP, and 20 μM DLG. And DGKζ reactions contained 0.4 nM DGKζ, 30 μM ATP, and 20 μM DLG. For compound inhibition studies, 40 nL test compound in DMSO was added to wells of white polystyrene plates in 384-well (Greiner, #784075) or 1536-well format (Greiner, #782075). Compounds were added with top concentration of 2 mM with 11 point, 3-fold dilution series. Enzyme solution (contains 2× DGK enzyme concentration in 1× assay buffer) was added to the plate in 2 μL/well volume, followed by 2 μL/well of substrate solution (contains 2× concentration of ATP and DLG substrate in 1× assay buffer). Plates were then centrifuged for 1 min at 1200 RPM and sealed or lidded. For 4 μL reaction volume, test compounds were therefore diluted 100× to final top concentration of 20 μM. After 90 minute incubation, reactions were quenched by addition of 2 μL/well Promega ADP-Glo Reagent, followed by centrifugation and lidding. After 60 min incubation, 2 μL/well Promega Kinase Detection Reagent was added, plates centrifuged, and incubated for 30 min. Plates were then read using Luminescence method on BMG PHERAstar FSX plate reader. Percent inhibition was calculated and IC50s were determined using 4-parameter fit in Genedata Screener. Labcyte Echo acoustic dispenser was used for compound addition, and Formulatrix Tempest liquid handler was used for all reagent dispenses.

DGKα = target: T1, DGKα (Homo sapiens, UniProt P23743); assay: In vitro DGKα inhibition assay (ADP-Glo); format: biochemical; conditions: His-tagged human recombinant enzyme; 0.1 nM DGKα, 50 μM ATP, 20 μM DLG; 90 minute incubation; ADP-Glo luminescence
T1 construct: His; purchased Signal Chem D21-10BH
T1 sequence (P23743 whole entry): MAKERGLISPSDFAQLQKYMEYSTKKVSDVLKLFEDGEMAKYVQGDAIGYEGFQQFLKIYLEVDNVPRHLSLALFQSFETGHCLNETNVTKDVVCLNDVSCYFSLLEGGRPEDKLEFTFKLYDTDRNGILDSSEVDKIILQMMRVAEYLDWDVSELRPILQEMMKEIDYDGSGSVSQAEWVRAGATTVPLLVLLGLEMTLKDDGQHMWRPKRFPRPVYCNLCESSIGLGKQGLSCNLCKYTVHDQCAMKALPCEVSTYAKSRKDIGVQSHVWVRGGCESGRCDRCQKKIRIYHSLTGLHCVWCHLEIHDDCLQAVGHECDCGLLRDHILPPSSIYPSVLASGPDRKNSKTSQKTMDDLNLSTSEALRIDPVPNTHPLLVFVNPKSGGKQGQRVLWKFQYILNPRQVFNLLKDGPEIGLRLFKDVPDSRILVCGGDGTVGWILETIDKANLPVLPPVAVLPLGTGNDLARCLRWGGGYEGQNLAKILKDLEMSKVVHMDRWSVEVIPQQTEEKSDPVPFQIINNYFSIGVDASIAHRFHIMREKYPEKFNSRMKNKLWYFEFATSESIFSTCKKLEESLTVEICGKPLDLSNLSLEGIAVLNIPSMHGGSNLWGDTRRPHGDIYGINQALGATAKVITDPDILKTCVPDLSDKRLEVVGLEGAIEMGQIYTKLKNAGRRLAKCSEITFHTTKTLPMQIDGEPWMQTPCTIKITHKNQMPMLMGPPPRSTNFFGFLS
Description: as §1

DGKζ, sequence (Q13574 whole entry): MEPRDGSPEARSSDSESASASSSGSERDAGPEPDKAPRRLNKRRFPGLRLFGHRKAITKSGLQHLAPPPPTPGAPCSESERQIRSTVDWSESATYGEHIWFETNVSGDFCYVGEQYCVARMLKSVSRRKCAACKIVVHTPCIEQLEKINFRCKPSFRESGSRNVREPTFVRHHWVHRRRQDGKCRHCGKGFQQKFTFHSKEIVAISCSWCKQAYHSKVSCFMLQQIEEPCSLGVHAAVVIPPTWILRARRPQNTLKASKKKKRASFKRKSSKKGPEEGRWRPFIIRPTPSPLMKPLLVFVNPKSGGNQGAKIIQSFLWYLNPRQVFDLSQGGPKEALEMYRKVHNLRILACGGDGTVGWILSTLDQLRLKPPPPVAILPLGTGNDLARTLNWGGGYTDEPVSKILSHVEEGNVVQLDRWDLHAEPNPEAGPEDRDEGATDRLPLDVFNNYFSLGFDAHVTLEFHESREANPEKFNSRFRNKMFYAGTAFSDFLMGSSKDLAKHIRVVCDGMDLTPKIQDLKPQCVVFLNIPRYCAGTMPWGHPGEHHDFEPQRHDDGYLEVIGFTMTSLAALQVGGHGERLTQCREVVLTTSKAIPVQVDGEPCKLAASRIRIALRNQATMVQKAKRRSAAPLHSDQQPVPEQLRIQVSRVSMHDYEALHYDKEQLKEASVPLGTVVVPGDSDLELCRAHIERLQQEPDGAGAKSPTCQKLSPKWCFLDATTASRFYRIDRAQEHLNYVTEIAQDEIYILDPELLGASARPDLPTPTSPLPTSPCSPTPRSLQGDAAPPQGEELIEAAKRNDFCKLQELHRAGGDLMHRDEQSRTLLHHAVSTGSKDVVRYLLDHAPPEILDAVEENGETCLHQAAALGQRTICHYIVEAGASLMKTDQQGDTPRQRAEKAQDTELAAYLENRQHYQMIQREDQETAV

Row | SMILES | IC50 (DGKζ) [nM] | IC50 (DGKα) [nM]
1 | [2H]c1c([2H])c([2H])c(Oc2ccc(/C=C(\F)c3cncc(N4CCC(F)(F)C4)n3)c(N3CCCC4(CCN(CC)CC4)C3)c2C(F)(F)F)c([2H])c1[2H] [Example 22, (Z)-2-(6-(2-(6-(3,3-Difluoropyrrolidin-1-yl)pyrazin-2-yl)-2-fluorovinyl)-3-(phenoxy-d5)-2-(trifluoromethyl)phenyl)-9-ethyl-2,9-diazaspiro[5.5]undecane] | ≤ 20 | ≤ 20
2 | COCCN1CCC2(CC1)CN(c1c(/C=C(\F)c3cccc(-c4ccnnc4)n3)ccc(Oc3ccccc3)c1C(F)(F)F)CCO2 [Example 26, (Z)-4-(6-(2-Fluoro-2-(6-(pyridazin-4-yl)pyridin-2-yl)vinyl)-3-phenoxy-2-(trifluoromethyl)phenyl)-9-(2-methoxyethyl)-1-oxa-4,9-diazaspiro[5.5]undecane] | ≤ 20 | ≤ 20
3 | F/C(=C\c1ccc(Oc2ccccc2)c(C(F)(F)F)c1N1CCCC2(CCN(CC3CC3)CC2)C1)c1cncc(-c2ccnnc2)n1 [Example 29, (Z)-9-(Cyclopropylmethyl)-2-(6-(2-fluoro-2-(6-(pyridazin-4-yl)pyrazin-2-yl)vinyl)-3-phenoxy-2-(trifluoromethyl)phenyl)-2,9-diazaspiro[5.5]undecane] | ≤ 20 | ≤ 20
4 | F/C(=C\c1ccc(Oc2ccccc2)c(C(F)(F)F)c1N1CCCC2(CCN(C3CCC3)CC2)C1)c1nccc(-c2ccnnc2)n1 [Example 30, (Z)-9-Cyclobutyl-2-(6-(2-fluoro-2-(4-(pyridazin-4-yl)pyrimidin-2-yl)vinyl)-3-phenoxy-2-(trifluoromethyl)phenyl)-2,9-diazaspiro[5.5]undecane] | ≤ 20 | ≤ 20
5 | CCN1CCC2(CCCN(c3c(/C=C(\F)c4nccc(-c5ccnnc5)n4)ccc(Oc4ncccc4F)c3C(F)(F)F)C2)CC1 [Example 32, (Z)-9-Ethyl-2-(6-(2-fluoro-2-(4-(pyridazin-4-yl)pyrimidin-2-yl)vinyl)-3-((3-fluoropyridin-2-yl)oxy)-2-(trifluoromethyl)phenyl)-2,9-diazaspiro[5.5]undecane] | ≤ 20 | ≤ 20
6 | CCN1CCC2(CCCN(c3c(/C=C(\F)c4cccc(-c5ccnnc5)n4)ccc(Oc4ncccc4F)c3C(F)(F)F)C2)CC1 [Example 33, (Z)-9-Ethyl-2-(6-(2-fluoro-2-(6-(pyridazin-4-yl)pyridin-2-yl)vinyl)-3-((3-fluoropyridin-2-yl)oxy)-2-(trifluoromethyl)phenyl)-2,9-diazaspiro[5.5]undecane] | ≤ 20 | ≤ 20
7 | CCN1CCC2(CC1)CN(c1c(/C=C(\F)c3cncc(-c4ccnnc4)n3)ccc(Oc3cccc(F)c3)c1C(F)(F)F)CCO2 [Example 34, (Z)-9-Ethyl-4-(6-(2-fluoro-2-(6-(pyridazin-4-yl)pyrazin-2-yl)vinyl)-3-(3-fluorophenoxy)-2-(trifluoromethyl)phenyl)-1-oxa-4,9-diazaspiro[5.5]undecane] | ≤ 20 | ≤ 20
8 | CCN1CCC2(CC1)CN(c1c(/C=C(\F)c3cncc(-c4ccnnc4)n3)ccc(Oc3ccccc3F)c1C(F)(F)F)CCO2 [Example 35, (Z)-9-Ethyl-4-(6-(2-fluoro-2-(6-(pyridazin-4-yl)pyrazin-2-yl)vinyl)-3-(2-fluorophenoxy)-2-(trifluoromethyl)phenyl)-1-oxa-4,9-diazaspiro[5.5]undecane] | ≤ 20 | ≤ 20
9 | F/C(=C\c1ccc(Oc2ccccc2F)c(C(F)(F)F)c1N1CCCC2(CCN(CC3CC3)CC2)C1)c1cncc(-c2ccnnc2)n1 [Example 37, (Z)-9-(Cyclopropylmethyl)-2-(6-(2-fluoro-2-(6-(pyridazin-4-yl)pyrazin-2-yl)vinyl)-3-(2-fluorophenoxy)-2-(trifluoromethyl)phenyl)-2,9-diazaspiro[5.5]undecane] | ≤ 20 | ≤ 20
10 | F/C(=C\c1ccc(Oc2ccc(F)cc2F)c(C(F)(F)F)c1N1CCCC2(CCN(CC3CC3)CC2)C1)c1cncc(-c2ccnnc2)n1 [Example 38, (Z)-9-(Cyclopropylmethyl)-2-(3-(2,4-difluorophenoxy)-6-(2-fluoro-2-(6-(pyridazin-4-yl)pyrazin-2-yl)vinyl)-2-(trifluoromethyl)phenyl)-2,9-diazaspiro[5.5]undecane] | ≤ 20 | ≤ 20
11 | CCN1CCC2(CCCN(c3c(/C=C(\F)c4nccc(-c5ccnnc5)n4)ccc(Oc4ccccc4F)c3C(F)(F)F)C2)CC1 [Example 40, (Z)-9-Ethyl-2-(6-(2-fluoro-2-(4-(pyridazin-4-yl)pyrimidin-2-yl)vinyl)-3-(2-fluorophenoxy)-2-(trifluoromethyl)phenyl)-2,9-diazaspiro[5.5]undecane] | ≤ 20 | ≤ 20

Other lines, results leading:

Row | IC50 (DGKζ) [nM] | IC50 (DGKα) [nM] | SMILES
12 | ≤ 20 | 20 to 200 | F/C(=C\c1ccc(Oc2ccccc2)c(C(F)(F)F)c1N1CCOC2(CCN(CC3CC3)CC2)C1)c1nccc(-c2ccnnc2)n1 [Example 23, (Z)-9-(Cyclopropylmethyl)-4-(6-(2-fluoro-2-(4-(pyridazin-4-yl)pyrimidin-2-yl)vinyl)-3-phenoxy-2-(trifluoromethyl)phenyl)-1-oxa-4,9-diazaspiro[5.5]undecane]
13 | ≤ 20 | ≤ 20 | CCN1CCC2(CC1)CN(c1c(/C=C(\F)c3nccc(-c4ccnnc4)n3)ccc(Oc3ccccc3)c1C(F)(F)F)CCO2 [Example 24, (Z)-9-Ethyl-4-(6-(2-fluoro-2-(4-(pyridazin-4-yl)pyrimidin-2-yl)vinyl)-3-phenoxy-2-(trifluoromethyl)phenyl)-1-oxa-4,9-diazaspiro[5.5]undecane]
14 | ≤ 20 | ≤ 20 | COCCN1CCC2(CC1)CN(c1c(/C=C(\F)c3nccc(-c4ccnnc4)n3)ccc(Oc3ccccc3)c1C(F)(F)F)CCO2 [Example 25, (Z)-4-(6-(2-Fluoro-2-(4-(pyridazin-4-yl)pyrimidin-2-yl)vinyl)-3-phenoxy-2-(trifluoromethyl)phenyl)-9-(2-methoxyethyl)-1-oxa-4,9-diazaspiro[5.5]undecane]
15 | ≤ 20 | ≤ 20 | F/C(=C\c1ccc(Oc2ccccc2)c(C(F)(F)F)c1N1CCOC2(CCN(CC3CC3)CC2)C1)c1cccc(-c2ccnnc2)n1 [Example 27, (Z)-9-(Cyclopropylmethyl)-4-(6-(2-fluoro-2-(6-(pyridazin-4-yl)pyridin-2-yl)vinyl)-3-phenoxy-2-(trifluoromethyl)phenyl)-1-oxa-4,9-diazaspiro[5.5]undecane]
16 | ≤ 20 | ≤ 20 | F/C(=C\c1ccc(Oc2ccccc2)c(C(F)(F)F)c1N1CCCC2(CCN(CC3CC3)CC2)C1)c1nccc(-c2ccnnc2)n1 [Example 28, (Z)-9-(Cyclopropylmethyl)-2-(6-(2-fluoro-2-(4-(pyridazin-4-yl)pyrimidin-2-yl)vinyl)-3-phenoxy-2-(trifluoromethyl)phenyl)-2,9-diazaspiro[5.5]undecane]
17 | ≤ 20 | ≤ 20 | COCCN1CCC2(CCCN(c3c(/C=C(\F)c4nccc(-c5ccnnc5)n4)ccc(Oc4ccccc4)c3C(F)(F)F)C2)CC1 [Example 31, (Z)-2-(6-(2-Fluoro-2-(4-(pyridazin-4-yl)pyrimidin-2-yl)vinyl)-3-phenoxy-2-(trifluoromethyl)phenyl)-9-(2-methoxyethyl)-2,9-diazaspiro[5.5]undecane]
18 | ≤ 20 | 20 to 200 | F/C(=C\c1ccc(Oc2ccccc2F)c(C(F)(F)F)c1N1CCOC2(CCN(CC3CC3)CC2)C1)c1cncc(-c2ccnnc2)n1 [Example 36, (Z)-9-(Cyclopropylmethyl)-4-(6-(2-fluoro-2-(6-(pyridazin-4-yl)pyrazin-2-yl)vinyl)-3-(2-fluorophenoxy)-2-(trifluoromethyl)phenyl)-1-oxa-4,9-diazaspiro[5.5]undecane]
19 | ≤ 20 | ≤ 20 | F/C(=C\c1ccc(Oc2ccccc2F)c(C(F)(F)F)c1N1CCCC2(CCN(CC3CC3)CC2)C1)c1nccc(-c2ccnnc2)n1 [Example 39, (Z)-9-(Cyclopropylmethyl)-2-(6-(2-fluoro-2-(4-(pyridazin-4-yl)pyrimidin-2-yl)vinyl)-3-(2-fluorophenoxy)-2-(trifluoromethyl)phenyl)-2,9-diazaspiro[5.5]undecane]
20 | ≤ 20 | ≤ 20 | CCN1CCC2(CC1)CN(c1c(/C=C(\F)c3nccc(-c4ccnnc4)n3)ccc(Oc3ccccc3F)c1C(F)(F)F)CCO2 [Example 41, (Z)-9-Ethyl-4-(6-(2-fluoro-2-(4-(pyridazin-4-yl)pyrimidin-2-yl)vinyl)-3-(2-fluorophenoxy)-2-(trifluoromethyl)phenyl)-1-oxa-4,9-diazaspiro[5.5]undecane]
